{
  "source": "patent US20200237871A1",
  "about": "“METHODS FOR MITIGATING LIVER INJURY AND PROMOTING LIVER HYPERTROPHY, REGENERATION AND CELL ENGRAFTMENT IN CONJUNCTION WITH RADIATION AND/OR RADIOMIMETIC TREATMENTS” (Janssen Pharmaceutica NV, priority 2019, published 2020)",
  "format_in_all_cases": "in vivo, mouse",
  "key": {"Hemophilia A mice": {"test_system": "Hemophilia A mice", "experiment": "Drabkin's tail bleeding assay (Example 6)", "text": "(§1) 8-16-week-old male C57/BL6 mice, 8-16-week-old female and male B6129SF2/J mice (donor for isolating LSECs) and 8-16-week-old female and male Hemophilia mice (F^8tm1Kaz) mice were used in this study. Mice were housed in groups of up to 5 in micro-isolator cages on stainless steel racks (Allentown, Inc., Allentown, N.J.) with a total floor space of 500 cm^2. The cages utilized an external water bottle and a dual feeder rack (Fisher Scientific, Hampton, N.H.). These cages were stored in the storage rack which provided temperature, humidity, and ventilation control to each individual cage (Allentown, Inc.). Bed-o'Cobs ⅛″ (Fisher Scientific) were used as bedding material in each cage.\n(§2) The methods were identical to Experiment 5 as described above; including the preparation of test articles (solutions of RWJ-800088 and AdHGF), isolation and transplant of LSECs, and Hepatic irradiation.\n(§3) The livers of mice were irradiated at 50 Gy by using an X-ray irradiator (SARRP). At 24 hours post-irradiation, the LSECs (1×10^6 cells/mouse) were injected to the mouse through tail vein. […]\n(§4) A tail bleeding test was performed in which the extent of bleeding and time to clotting over the course of 30 minutes was evaluated. FVIII protein levels were evaluated by Western blot and mRNA profiling in the blood and liver to evaluate the extent to which there was engraftment of functioning LSECs that produce FVIII. […]"}, "factor VIII (FVIII)": {"test_system": "factor VIII (FVIII)", "experiment": "Factor VIII production in plasma and liver of Hemophilia A mice (ELISA, Western blot, mRNA) (Example 6)", "text": "as §1, §2, §3, §4"}, "cirrhotic mice": {"test_system": "cirrhotic mice", "experiment": "Lobe weight ratio / hypertrophy of non-irradiated lobe in cirrhotic mice after HIR (Example 5)", "procedure": "Male C57BL/6 DPPIV knockout male mice (10-14 weeks) were injected intraperitoneally with carbon tetrachloride (CCl4) twice a week for a minimum of 12 weeks until a maximum of when 5 out of 30 mice perish from the CCl4 injection. Immediately after, the animals were randomly distributed into the experimental groups.\nImage-guided external beam irradiation was performed using a small animal radiation research platform (SARRP, Xstrahl Inc., Suwanee, Ga.). Mice were given gastrografin contrast through gavage to improve visualization of the gastrointestinal (GI) tract. […]\nThe methods were identical to Experiment 4 as described above with the exception that the CCl4 dose was increased to 20% in olive oil over 12 weeks. To evaluate the effect of RWJ-800088+Liver Sinusoidal Endothelial Cells (LSEC), RWJ-800088+Plerixafor (a selective inhibitor of CXCR4 administered pre- and post-irradiation) on radiation induced liver disease as measured by SPECT-CT in cirrhotic mice after single hepatic irradiation (HIR) at 50 Gy. […]\nThe dosing solution of RWJ-800088 was prepared as described in Experiment 4. […] The number of viral particles and infectious units' ratio was determined by infecting 293 cells at various dilutions, followed by immunocytochemical staining for adenoviral hexons. The infectious titer was calculated from the number of plaques formed per 1,000 viral particles. […]"}},
  "data": [
    {"substance": "methoxypolyethyleneglycol20000-propionyl-L-Isoleucyl-L-Glutamyl-Glycyl-L-Prolyl-L-Threonyl-L-Leucyl-L-Arginyl-L-Glutaminyl-L-2-Naphthylalanyl-L-Leucyl-L-Alanyl-L-Alanyl-L-Arginyl-Sarcosyl-Ne-(methoxypolyethyleneglycol20000-propionyl-L-Isoleucyl-L-Glutamyl-Glycyl-L-Prolyl-L-Threonyl-L-Leucyl-L-Arginyl-L-Glutaminyl-L-2-Naphthyl alanyl-L-Leucyl-L-Alanyl-L-Alanyl-L-Arginyl-Sarcosyl-)-Lysinamide [RWJ-800088]", "values": [
      {"measurement": "haemoglobin loss (haemoglobin concentration in the collection tube) compared to FVIII deficient model", "setting": "Hemophilia A mice; HIR 50 Gy + LSECs + drug", "value": "significant decrease"},
      {"measurement": "bleeding and clotting time in functional bleeding assay", "setting": "Hemophilia A mice; HIR + LSEC transplantation + RWJ-800088", "value": "reduced bleeding and clotting time similar to non-Hemophilia A controls"},
      {"measurement": "levels of Factor VIII mRNA and activated protein in plasma and liver", "setting": "factor VIII (FVIII); HIR+LSECs+RWJ-800088 treated hemophilia mice", "value": "increased levels"},
      {"measurement": "expression of factor VIII (FVIII) by ELISA in plasma and liver compared to non-treated Haemophilia A mice", "setting": "factor VIII (FVIII); HIR+LSECs+drug", "value": "prolonged expression"},
      {"measurement": "Average Ratio of Right Lobe to Left Lobe Weight", "setting": "cirrhotic mice; HIR + LSEC transplant (48 hours after HIR) + drug, 4 months post-HIR", "value": 1.35},
      {"measurement": "hypertrophy of the non-irradiated lobe", "setting": "cirrhotic mice; cirrhotic mice, 50 Gy HIR, RWJ-800088 with LSEC transplants", "value": "increase in hypertrophy"}
    ]}
  ]
}
